These results are taken from PubChem BioAssay AID328 (DTP/NCI, 2004).

“And” between values parts separate entries of the source, which are not always exact repeats. Identical values can stand only once. Toxic doses and inconclusive results are not listed.

For this assay, the system named is BDF1 mice, P388 leukemia ip, median survival T/C. In words: NCI In Vivo Anticancer Drug Screen. Data for tumor model P388 Leukemia (intraperitoneal) in B6D2F1 (BDF1) mice. To be noted: endpoint: median survival time, higher = longer survival. The method, boiled down: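 Read-out is survival of treated animals expressed relative to the vehicle group, as a T/C ratio.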

Setting [1] is: dose: 25.0 mg/kg/injection, schedule: Q01DX009 (ip), vehicle: saline with Tween-80.
Setting [2] is: dose: 50.0 mg/kg/injection, schedule: Q01DX009 (ip), vehicle: saline with Tween-80.
Where [3] appears, read: dose: 100.0 mg/kg/injection, schedule: Q01DX009 (ip), vehicle: saline with Tween-80.
The mark [4] stands for this setting: dose: 100.0 mg/kg/injection, schedule: Q01DX001 (ip), vehicle: saline with Tween-80.
Where [5] appears, read: dose: 200.0 mg/kg/injection, schedule: Q01DX001 (ip), vehicle: saline with Tween-80.
The mark [6] stands for this setting: dose: 400.0 mg/kg/injection, schedule: Q01DX001 (ip), vehicle: saline with Tween-80.
Where [7] appears, read: dose: 200.0 mg/kg/injection, schedule: Q01DX009 (ip), vehicle: saline with Tween-80.
[8] abbreviates: dose: 50.0 mg/kg/injection, schedule: Q01DX009 (ip), vehicle: saline.
Setting [9] is: dose: 100.0 mg/kg/injection, schedule: Q04DX003 (ip), vehicle: saline with Tween-80.
Setting [10] is: dose: 200.0 mg/kg/injection, schedule: Q04DX003 (ip), vehicle: saline with Tween-80.
[11] abbreviates: dose: 400.0 mg/kg/injection, schedule: Q01DX009 (ip), vehicle: saline with Tween-80.

As for `COc1ccc(/C=C/C(=O)c2ccccc2)cc1OC`, the T/C was 117 % of control (dose: 37.5 mg/kg/injection, schedule: Q01DX009 (ip), vehicle: Klucel (hydroxypropylcellulose) (HPC)); 92 % of control (dose: 50.0 mg/kg/injection, schedule: Q01DX009 (ip), vehicle: water); 111 % of control (dose: 75.0 mg/kg/injection, schedule: Q01DX009 (ip), vehicle: Klucel (hydroxypropylcellulose) (HPC)); 115 % of control (dose: 100.0 mg/kg/injection, schedule: Q01DX006 (ip), vehicle: water); 105 % of control (dose: 100.0 mg/kg/injection, schedule: Q01DX009 (ip), vehicle: Klucel (hydroxypropylcellulose) (HPC)); 115 % of control (dose: 100.0 mg/kg/injection, schedule: Q01DX009 (ip), vehicle: water). In addition, the T/C runs as follows: (dose: 100.0 mg/kg/injection, schedule: Q04DX003 (ip), vehicle: Klucel (hydroxypropylcellulose) (HPC)) 113 % of control; (dose: 100.0 mg/kg/injection, schedule: Q04DX003 (ip), vehicle: water) 86 % of control; (dose: 150.0 mg/kg/injection, schedule: Q01DX009 (ip), vehicle: Klucel (hydroxypropylcellulose) (HPC)) 105 % of control; (dose: 200.0 mg/kg/injection, schedule: Q01DX006 (ip), vehicle: water) 108 % of control; (dose: 200.0 mg/kg/injection, schedule: Q01DX009 (ip), vehicle: Klucel (hydroxypropylcellulose) (HPC)) 100 % of control; (dose: 200.0 mg/kg/injection, schedule: Q04DX003 (ip), vehicle: Klucel (hydroxypropylcellulose) (HPC)) 90 % of control. In addition, the T/C (dose: 200.0 mg/kg/injection, schedule: Q04DX003 (ip), vehicle: water) was 100 % of control; the T/C (dose: 300.0 mg/kg/injection, schedule: Q01DX009 (ip), vehicle: Klucel (hydroxypropylcellulose) (HPC)) is 107 % of control and 111 % of control; the T/C (dose: 400.0 mg/kg/injection, schedule: Q01DX006 (ip), vehicle: water) is 150 % of control; the T/C (dose: 400.0 mg/kg/injection, schedule: Q01DX009 (ip), vehicle: Klucel (hydroxypropylcellulose) (HPC)) is 109 % of control and 115 % of control; the T/C (dose: 400.0 mg/kg/injection, schedule: Q01DX009 (ip), vehicle: water) is 124 % of control; the T/C (dose: 400.0 mg/kg/injection, schedule: Q04DX003 (ip), vehicle: Klucel (hydroxypropylcellulose) (HPC)) is 100 % of control. The T/C is, setting by setting: (dose: 400.0 mg/kg/injection, schedule: Q04DX003 (ip), vehicle: water) 98 % of control; (dose: 500.0 mg/kg/injection, schedule: Q01DX006 (ip), vehicle: water) 161 % of control; (dose: 500.0 mg/kg/injection, schedule: Q01DX009 (ip), vehicle: Klucel (hydroxypropylcellulose) (HPC)) 100 % of control.

Consider `CNCCCC12CC(c3ccccc31)c1ccccc12`, for which the T/C was 103 % of control under setting [1], 101 % of control under setting [2] and 112 % of control under setting [3].

For `O=S(=O)(O)N(O)c1ccccc1`, the T/C runs as follows: (dose: 25.0 mg/kg/injection, schedule: Q01DX001 (ip), vehicle: saline with Tween-80) 105 % of control; (dose: 50.0 mg/kg/injection, schedule: Q01DX001 (ip), vehicle: saline with Tween-80) 102 % of control; under setting [4], 100 % of control; under setting [5], 99 % of control and 105 % of control; under setting [6], 101 % of control.

`OB(O)C1=CC(c2ccccc2)(c2ccccc2)N=C1`: the T/C was 100 % of control (dose: 25.0 mg/kg/injection, schedule: Q01DX001 (ip), vehicle: saline sonified); 100 % of control (dose: 50.0 mg/kg/injection, schedule: Q01DX001 (ip), vehicle: saline sonified); 104 % of control (dose: 100.0 mg/kg/injection, schedule: Q01DX001 (ip), vehicle: saline sonified).

As for `C=CCOc1ccc([N+](=O)[O-])cc1[N+](=O)[O-]`, the T/C is, setting by setting: under setting [4], 100 % of control; under setting [5], 105 % of control; under setting [6], 100 % of control.

For the compound `c1ccc(-c2nc3ccccc3nc2-c2ccc(-c3ccc(-c4nc5ccccc5nc4-c4ccccc4)cc3)cc2)cc1`, the T/C reads like this: under setting [2], 88 % of control; under setting [7], 88 % of control.

Take `O=C1NCN(c2ccccc2)C12CCNCC2`: the T/C (dose: 25.0 mg/kg/injection, schedule: Q01DX009 (ip), vehicle: saline) was 90 % of control; the T/C under setting [8] was 113 % of control; the T/C (dose: 100.0 mg/kg/injection, schedule: Q01DX009 (ip), vehicle: saline) is 100 % of control.

As for `Cc1oc(-c2ccccc2)nc1C(=O)Cl`, the T/C under setting [4] was 120 % of control, the T/C under setting [5] was 113 % of control and the T/C under setting [6] was 103 % of control.

Regarding `Cc1ccc(C)c(NC(=O)c2ccc(Cl)cc2Cl)c1`, the T/C is 90 % of control (dose: 75.0 mg/kg/injection, schedule: Q01DX001 (ip), vehicle: other) and 90 % of control (dose: 150.0 mg/kg/injection, schedule: Q01DX001 (ip), vehicle: other).

With `O=Cc1cc(O)ccc1[N+](=O)[O-]`, the T/C is 95 % of control under setting [2]; 104 % of control under setting [3]; 104 % of control under setting [9]; 100 % of control under setting [7]; 90 % of control under setting [10].

Turning to `Cc1ccc(NC(=O)NCCCOc2ccc(N3C(N)=NC(N)=NC3(C)C)cc2Cl)cc1S(=O)(=O)F`, the T/C reads like this: (dose: 45.0 mg/kg/injection, schedule: Q04DX003 (ip), vehicle: saline) 100 % of control; under setting [8], 155 % of control; (dose: 65.0 mg/kg/injection, schedule: Q04DX003 (ip), vehicle: saline) 109 % of control; (dose: 75.0 mg/kg/injection, schedule: Q01DX009 (ip), vehicle: saline) 150 % of control and 155 % of control; (dose: 100.0 mg/kg/injection, schedule: Q04DX003 (ip), vehicle: saline) 122 % of control; (dose: 110.0 mg/kg/injection, schedule: Q01DX009 (ip), vehicle: saline) 160 % of control. For the same compound, the T/C (dose: 150.0 mg/kg/injection, schedule: Q01DX009 (ip), vehicle: saline) is 90 % of control and the T/C (dose: 200.0 mg/kg/injection, schedule: Q04DX003 (ip), vehicle: saline) was 186 % of control.

Regarding `CCC(=O)Oc1c(Cl)c(Cl)c(C#N)c(Cl)c1Cl`, the T/C was 108 % of control under setting [9] and 116 % of control under setting [10].

For `CC(C)C(C)/C=C\C(C)C1CCC2C3=CCC4CC(=O)CCC4(C)C3CCC21C` (stereo not drawn), the T/C by setting is: (dose: 6.25 mg/kg/injection, schedule: Q01DX009 (ip), vehicle: saline with Tween-80) 104 % of control; (dose: 12.5 mg/kg/injection, schedule: Q01DX009 (ip), vehicle: saline with Tween-80) 104 % of control; under setting [1], 108 % of control.

Turning to `NNC(=O)C1CCC(=O)O1` (stereo not drawn), the T/C reads like this: (dose: 75.0 mg/kg/injection, schedule: Q01DX009 (ip), vehicle: saline with Tween-80) 98 % of control; (dose: 150.0 mg/kg/injection, schedule: Q01DX009 (ip), vehicle: saline with Tween-80) 91 % of control; (dose: 300.0 mg/kg/injection, schedule: Q01DX009 (ip), vehicle: saline with Tween-80) 100 % of control.

Consider `CCOC(=O)C(Cc1ccc(C)cc1)(NC(C)=O)C(=O)OCC`, for which the T/C under setting [3] was 92 % of control, the T/C under setting [7] is 99 % of control and the T/C under setting [11] was 101 % of control.

For the compound `CCCCCCCCCCCCCC[n+]1ccccc1`, the T/C is 87 % of control (dose: 16.0 micrograms/kg/injection, schedule: Q01DX009 (ip), vehicle: saline with Tween-80); 100 % of control (dose: 32.0 micrograms/kg/injection, schedule: Q01DX009 (ip), vehicle: saline with Tween-80); 113 % of control (dose: 62.5 micrograms/kg/injection, schedule: Q01DX009 (ip), vehicle: saline); 115 % of control (dose: 62.5 micrograms/kg/injection, schedule: Q01DX010 (ip), vehicle: saline); 122 % of control (dose: 125.0 micrograms/kg/injection, schedule: Q01DX009 (ip), vehicle: saline); 110 % of control (dose: 250.0 micrograms/kg/injection, schedule: Q01DX010 (ip), vehicle: saline).

Regarding `CCCCCCC(=O)/C=C/c1ccc(N(C)C)cc1`, the T/C was 97 % of control under setting [3], 97 % of control under setting [7] and 93 % of control under setting [11].
